In experiment [1] the target is T1, ΔF508-CFTR (Homo sapiens, UniProt P13569, DEL508-508).
T1 construct: host or cells: CFBE41o-, doxycycline-inducible
The experiment is described as follows: CFTR cell surface levels using HRP-tagged ΔF508-CFTR expressing CFBE cells, intrinsic corrector capacity. The format is cell-based. Details: % Activation: concentration or dose not given beside the values. Particulars: HRP-tagged ΔF508-CFTR expressing CFBE41o- cells, compound alone (intrinsic corrector capacity), 20 hours at 33° C.; for EC50: read-out: EC50. The method, boiled down:
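Surface ΔF508-CFTR was measured as HRP chemiluminescence from an extracellular-loop-4 tag, expressed as percent activity between DMSO and a […] corrector control.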

In experiment [2] the target is T1, ΔF508-CFTR. The experiment is described as follows: CFTR cell surface levels using HRP-tagged ΔF508-CFTR expressing CFBE cells, in the presence of a co-corrector. Format: cell-based. Particulars: HRP-tagged ΔF508-CFTR CFBE cells, in the presence of 3 μM co-corrector; for EC50: read-out: EC50. The method in brief:
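Chemiluminescent read-out of surface HRP (15 min, dark) after PBS washes. Activity is normalized as 100×(sample−DMSO)/(3 μM co-corrector alone−DMSO).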

T1 sequence (P13569 with tags, fused parts or gaps DEL508-508): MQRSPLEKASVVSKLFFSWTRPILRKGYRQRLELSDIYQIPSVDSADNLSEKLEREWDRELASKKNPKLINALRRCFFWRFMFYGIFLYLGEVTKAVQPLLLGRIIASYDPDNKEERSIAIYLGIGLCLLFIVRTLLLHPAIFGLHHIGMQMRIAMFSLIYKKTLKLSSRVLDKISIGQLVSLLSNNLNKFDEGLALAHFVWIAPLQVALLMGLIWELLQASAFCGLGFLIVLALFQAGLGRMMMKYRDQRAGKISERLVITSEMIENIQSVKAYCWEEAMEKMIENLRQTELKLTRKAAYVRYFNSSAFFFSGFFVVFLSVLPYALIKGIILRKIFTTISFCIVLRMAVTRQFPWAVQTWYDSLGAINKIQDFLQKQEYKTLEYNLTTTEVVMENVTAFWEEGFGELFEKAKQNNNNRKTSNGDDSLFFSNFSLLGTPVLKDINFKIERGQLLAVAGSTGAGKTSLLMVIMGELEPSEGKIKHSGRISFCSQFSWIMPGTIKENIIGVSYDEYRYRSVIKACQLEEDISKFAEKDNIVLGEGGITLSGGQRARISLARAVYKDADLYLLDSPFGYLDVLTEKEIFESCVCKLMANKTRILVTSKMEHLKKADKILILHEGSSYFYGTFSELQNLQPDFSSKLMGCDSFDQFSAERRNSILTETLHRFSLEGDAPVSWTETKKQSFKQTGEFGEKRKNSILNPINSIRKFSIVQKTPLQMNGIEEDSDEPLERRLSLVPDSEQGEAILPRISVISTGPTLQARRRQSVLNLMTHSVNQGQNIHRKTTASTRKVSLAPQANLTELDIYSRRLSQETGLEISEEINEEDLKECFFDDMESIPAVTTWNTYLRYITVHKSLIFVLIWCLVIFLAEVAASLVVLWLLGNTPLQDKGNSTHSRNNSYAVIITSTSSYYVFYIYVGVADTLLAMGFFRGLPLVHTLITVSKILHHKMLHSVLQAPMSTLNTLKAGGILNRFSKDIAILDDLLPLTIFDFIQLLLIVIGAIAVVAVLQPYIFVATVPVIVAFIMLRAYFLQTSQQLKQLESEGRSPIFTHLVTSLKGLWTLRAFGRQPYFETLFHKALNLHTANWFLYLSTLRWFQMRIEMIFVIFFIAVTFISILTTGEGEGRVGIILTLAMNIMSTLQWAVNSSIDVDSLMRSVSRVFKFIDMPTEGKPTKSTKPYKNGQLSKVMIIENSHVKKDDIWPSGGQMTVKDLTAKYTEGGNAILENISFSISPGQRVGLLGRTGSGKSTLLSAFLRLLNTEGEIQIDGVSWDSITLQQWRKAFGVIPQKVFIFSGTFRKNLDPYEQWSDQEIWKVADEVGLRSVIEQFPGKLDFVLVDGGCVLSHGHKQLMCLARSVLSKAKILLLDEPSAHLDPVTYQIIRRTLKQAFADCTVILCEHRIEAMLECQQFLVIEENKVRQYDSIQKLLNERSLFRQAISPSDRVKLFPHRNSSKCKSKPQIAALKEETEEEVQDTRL

As for `CC(C)c1nn(C2CCCCC2)c2nc(C(=O)NS(C)(=O)=O)cc(-c3ccc(N4CCCC(F)C4)nc3)c12` (stereo not drawn) [Compound 108, 1-cyclohexyl-4-[6-(3-fluoropiperidin-1-yl)pyridin-3-yl]-N-(methanesulfonyl)-3-(propan-2-yl)-1H-pyrazolo[3,4-b]pyridine-6-carboxamide], at ΔF508-CFTR [1], the “% Activation” value was determined as 218.05% and the EC50 came to 0.561 µM. At ΔF508-CFTR [2], the “% Activation” value worked out at 428.3% and the EC50 is 0.509 µM.
In the same order, the values of `COCCN(C)c1ccc(-c2cc(C(=O)NS(C)(=O)=O)nc3c2c(C(C)C)nn3-c2cccc(N3CCCC3)c2)cc1` [Compound 109, N-(methanesulfonyl)-4-{4-[(2-methoxyethyl)(methyl)amino]phenyl}-3-(propan-2-yl)-1-[3-(pyrrolidin-1-yl)phenyl]-1H-pyrazolo[3,4-b]pyridine-6-carboxamide] are 381.05%, 0.613 µM, 571.3% and 0.634 µM.
In the same order, the values of `CN(c1ccc(-c2cc(C(=O)NS(C)(=O)=O)nc3c2c(C2CCC2)nn3-c2cccc(N3CCCC3)c2)cc1)C1CCOCC1` [Compound 111, 3-cyclobutyl-N-(methanesulfonyl)-4-{4-[methyl(oxan-4-yl)amino]phenyl}-1-[3-(pyrrolidin-1-yl)phenyl]-1H-pyrazolo[3,4-b]pyridine-6-carboxamide] are 411.63%, 0.444 µM, 596.8% and 0.378 µM.
Regarding `CCS(=O)(=O)NC(=O)c1cc(-c2cnc(N3CCOCC3)nc2)c2c(C(C)C)nn(-c3ccccc3)c2n1` [Compound 112, N-(ethanesulfonyl)-4-[2-(morpholin-4-yl)pyrimidin-5-yl]-1-phenyl-3-(propan-2-yl)-1H-pyrazolo[3,4-b]pyridine-6-carboxamide], on ΔF508-CFTR [1], the “% Activation” value is on record as 254.85% and the EC50 is 0.699 µM. Also, on ΔF508-CFTR [2], the “% Activation” value was 472.8% and the EC50 came out at 0.884 µM.
For the compound `CCS(=O)(=O)NC(=O)c1cc(-c2ccc(OC)cc2)c2c(C)nn(-c3ccc(C)c(Cl)c3)c2n1` [Compound 114, 1-(3-chloro-4-methylphenyl)-N-(ethanesulfonyl)-4-(4-methoxyphenyl)-3-methyl-1H-pyrazolo[3,4-b]pyridine-6-carboxamide], the “% Activation” value is 130.85% on ΔF508-CFTR [1] and 277.45% at ΔF508-CFTR [2]. The EC50 turned out to be 1.14 µM at ΔF508-CFTR [1] and 0.952 µM at ΔF508-CFTR [2].
In the same order, the values of `CCS(=O)(=O)NC(=O)c1cc(-c2ccc(N3CCOCC3)cc2)c2c(C)nn(-c3cc(C)cc(C)c3)c2n1` [Compound 115, 1-(3,5-dimethylphenyl)-N-(ethanesulfonyl)-3-methyl-4-[4-(morpholin-4-yl)phenyl]-1H-pyrazolo[3,4-b]pyridine-6-carboxamide] are 216.05%, 389.6%, 1.05 µM and 0.665 µM.
As to `CCS(=O)(=O)NC(=O)c1cc(-c2ccc(N3CCOCC3)cc2)c2c(C)nn(-c3ccc(F)c(F)c3)c2n1` [Compound 116, 1-(3,4-difluorophenyl)-N-(ethanesulfonyl)-3-methyl-4-[4-(morpholin-4-yl)phenyl]-1H-pyrazolo[3,4-b]pyridine-6-carboxamide], on ΔF508-CFTR [1], the “% Activation” value is on record as 295.57% and the EC50 came to 0.957 µM. For the same compound, on ΔF508-CFTR [2], the “% Activation” value was 438.37% and the concentration giving a half-maximal response (EC50) is 0.631 µM.
Regarding `CCS(=O)(=O)NC(=O)c1cc(N2CCC(OC)CC2)c2c(C(C)C)nn(-c3cccc(C)c3)c2n1` [Compound 118, N-(ethanesulfonyl)-4-(4-methoxypiperidin-1-yl)-1-(3-methylphenyl)-3-(propan-2-yl)-1H-pyrazolo[3,4-b]pyridine-6-carboxamide], at ΔF508-CFTR [1], the “% Activation” value came out at 289.93% and the EC50 is 0.398 µM. Also, on ΔF508-CFTR [2], the “% Activation” value is given as 469% and the EC50 is 0.28 µM.
In the same order, the values of `COCCN(C)c1ncc(-c2cc(C(=O)NS(C)(=O)=O)nc3c2c(C(C)C)nn3C2CCCCC2)cn1` [Compound 120, 1-cyclohexyl-N-(methanesulfonyl)-4-{2-[(2-methoxyethyl)(methyl)amino]pyrimidin-5-yl}-3-(propan-2-yl)-1H-pyrazolo[3,4-b]pyridine-6-carboxamide] are 169.2%, 0.554 µM, 351.03% and 0.348 µM.
Take `CC(C)c1nn(C2CCCCC2)c2nc(C(=O)NS(C)(=O)=O)cc(-c3ccc(N(C)C4CCOC4)nc3)c12` (stereo not drawn) [Compound 122, 1-cyclohexyl-N-(methanesulfonyl)-4-{6-[methyl(oxolan-3-yl)amino]pyridin-3-yl}-3-(propan-2-yl)-1H-pyrazolo[3,4-b]pyridine-6-carboxamide]: the “% Activation” value is on record as 184.53% at ΔF508-CFTR [1] and 405.9% at ΔF508-CFTR [2]. Also, the EC50 on ΔF508-CFTR [1] was determined as 0.47 µM; on ΔF508-CFTR [2], 0.281 µM.
Turning to `CC(C)c1nn(C2CCCCC2)c2nc(C(=O)NS(C)(=O)=O)cc(-c3cnc(N(C)C4CCOCC4)nc3)c12` [Compound 123, 1-cyclohexyl-N-(methanesulfonyl)-4-{2-[methyl(oxan-4-yl)amino]pyrimidin-5-yl}-3-(propan-2-yl)-1H-pyrazolo[3,4-b]pyridine-6-carboxamide], on ΔF508-CFTR [1], the “% Activation” value worked out at 153.8% and the EC50 was 0.428 µM. At ΔF508-CFTR [2], the “% Activation” value is 365.8% and the EC50 was 0.239 µM.
In the same order, the values of `CC(C)c1nn(-c2cccc(C(F)(F)F)c2)c2nc(C(=O)NS(C)(=O)=O)cc(-c3ccc(N4CCC(C#N)CC4)nc3)c12` [Compound 124, 4-[6-(4-cyanopiperidin-1-yl)pyridin-3-yl]-N-(methanesulfonyl)-3-(propan-2-yl)-1-[3-(trifluoromethyl)phenyl]-1H-pyrazolo[3,4-b]pyridine-6-carboxamide] are 288.1%, 0.545 µM, 447.23% and 0.312 µM.
For the compound `CC(C)c1nn(-c2cccc(N(C)C)n2)c2nc(C(=O)NS(C)(=O)=O)cc(-c3ccc(N4CCOCC4)cc3)c12` [Compound 125, 1-[6-(dimethylamino)pyridin-2-yl]-N-(methanesulfonyl)-4-[4-(morpholin-4-yl)phenyl]-3-(propan-2-yl)-1H-pyrazolo[3,4-b]pyridine-6-carboxamide], on ΔF508-CFTR [1], the “% Activation” value was determined as 369.87% and the EC50 came out at 0.988 µM. Further, on ΔF508-CFTR [2], the “% Activation” value turned out to be 520.33% and the EC50 was 0.463 µM.
The matching figures for `CC(C)c1nn(-c2cccc(OC(F)(F)F)c2)c2nc(C(=O)NS(C)(=O)=O)cc(-c3ccc(N4CCOCC4)cc3)c12` [Compound 126, N-(methanesulfonyl)-4-[4-(morpholin-4-yl)phenyl]-3-(propan-2-yl)-1-[3-(trifluoromethoxy)phenyl]-1H-pyrazolo[3,4-b]pyridine-6-carboxamide]: 309.17%, 0.597 µM, 487.53% and 0.322 µM.
In the same order, the values of `CC(C)c1nn(-c2ccc(F)c(F)c2)c2nc(C(=O)NS(C)(=O)=O)cc(-c3ccc(N4CCOCC4)cc3)c12` [Compound 127, 1-(3,4-difluorophenyl)-N-(methanesulfonyl)-4-[4-(morpholin-4-yl)phenyl]-3-(propan-2-yl)-1H-pyrazolo[3,4-b]pyridine-6-carboxamide] are 301.45%, 0.518 µM, 449.1% and 0.252 µM.
`COc1cc(F)cc(-n2nc(C)c3c(-c4c(F)cc(OC)cc4F)cc(C(=O)NS(C)(=O)=O)nc32)c1` [Compound 129, 4-(2,6-difluoro-4-methoxyphenyl)-1-(3-fluoro-5-methoxyphenyl)-N-(methanesulfonyl)-3-methyl-1H-pyrazolo[3,4-b]pyridine-6-carboxamide]: at ΔF508-CFTR [1], the “% Activation” value is given as 187.5% and the EC50 was determined as 1.33 µM. Further, on ΔF508-CFTR [2], the “% Activation” value turned out to be 307.3% and the EC50 was 0.79 µM.
The matching figures for `CC(C)c1nn(-c2cc(F)cc(F)c2)c2nc(C(=O)NS(C)(=O)=O)cc(-c3ccc(N4CCC(C#N)CC4)cc3)c12` [Compound 130, 4-[4-(4-cyanopiperidin-1-yl)phenyl]-1-(3,5-difluorophenyl)-N-(methanesulfonyl)-3-(propan-2-yl)-1H-pyrazolo[3,4-b]pyridine-6-carboxamide]: 318.25%, 0.541 µM, 496.9% and 0.54 µM.
Regarding `CC(C)c1nn(-c2cccc(F)c2)c2nc(C(=O)NS(C)(=O)=O)cc(-c3ccc(N4CCC(C#N)CC4)cc3)c12` [Compound 131, 4-[4-(4-cyanopiperidin-1-yl)phenyl]-1-(3-fluorophenyl)-N-(methanesulfonyl)-3-(propan-2-yl)-1H-pyrazolo[3,4-b]pyridine-6-carboxamide], on ΔF508-CFTR [1], the “% Activation” value came out at 314.35% and the EC50 turned out to be 0.43 µM. Moreover, on ΔF508-CFTR [2], the “% Activation” value worked out at 465.1% and the EC50 was found to be 0.581 µM.

(Values after patent US10259810B2, “N-sulfonylated pyrazolo[3,4-b]pyridin-6-carboxamides and method of use” (AbbVie S.à.r.l., priority 2015, dated 2019).)
